From US8618286B2, “Benzoxazines, benzothiazines, and related compounds having NOS inhibitory activity” (NeurAxon, Inc., priority 2008, dated 2013) come the findings set out here.

SMILES strings stand for the structures.

For assay [1], the target named is Recombinant human inducible NOS (iNOS) (Homo sapiens (Human), UniProt P35228). Description: Human iNOS enzyme assay (Protocol 1 or Protocol 2, radiometric). It counts as biochemical. How it is done:
The human iNOS assay was carried by either one of the two protocols as described herein:
Recombinant human inducible NOS (iNOS) was produced in Baculovirus-infected Sf9 cells (ALEXIS). In a radiometric method, NO synthase activity was determined by measuring the conversion of [^3H]L-arginine to [^3H]L-citrulline. To measure iNOS, 10 μL of enzyme was added to 100 μL of 100 mM HEPES, pH=7.4, containing 1 mM CaCl2, 1 mM EDTA, 1 mM dithiothreitol, 1 μM FMN, 1 μM FAD, 10 μM tetrahydrobiopterin, 120 μM NADPH, and 100 nM CaM.
To measure enzyme inhibition, a 15 μL solution of a test substance was added to the enzyme assay solution, followed by a pre-incubation time of 15 min at RT. The reaction was initiated by addition of 20 μL L-arginine containing 0.25 μCi of [^3H] arginine/mL and 24 μM L-arginine. The total volume of the reaction mixture was 150 μL in every well. The reactions were carried out at 37° C. for 45 minutes, The reaction was stopped by adding 20 μL of ice-cold buffer containing 100 mM HEPES, 3 mM EGTA, 3 mM EDTA, pH=5.5. [^3H]L-citrulline was separated by DOWEX (ion-exchange resin DOWEX 50 W×8-400, SIGMA) and the DOWEX was removed by spinning at 12,000 g for 10 min in the centrifuge. An aliquot (70 μL) of the supernatant was added to 100 μL of scintillation fluid, and the samples were counted in a liquid scintillation counter (1450 Microbeta Jet, Wallac). Specific NOS activity was reported as the difference between the activity recovered from the test solution and that observed in a control sample containing 240 mM of the inhibitor L-NMMA. All assays were performed at least in duplicate. Standard deviations are 10% or less.
Primary stock solutions of each test compound were prepared in distilled water on the day of study to obtain a final concentration of 6 mM. For the determination of IC50 values, 11 test compound concentrations were prepared as 3-fold serial dilutions. Test compounds were tested in the iNOS assay at a concentration of 1000 μM to 0.0169 μM. The vehicle of the test compound or inhibitor, distilled water, was used as blank control. For non-specific activity, 100 μM L-NMMA was run in parallel as a control.
All incubations were performed in duplicate
The reaction mixture was prepared on ice by the addition of the following components to the appropriate well of a 1.0 mL 96-well polypropylene plate:
10 μL of test compound, reference inhibitor, or control (vehicle or L-NMMA) solution;
25 μL of Reaction Buffer (50 mM Tris-HCl, 6 μM BH4, 2 μM FMN, 2 μM FAD);
5 μL of 10 mM NADPH solution;
5 μL of 1 μM Calmodulin; and
The reaction mixture was pre-incubated at room temperature for 15 minutes. Following this pre-incubation, the reaction was initiated by the addition of 5 μL of the substrate L-arginine (1 μCi of [^3H]-L-Arginine+30 μM of unlabeled L-Arginine) to the reaction mixture. The total reaction volume was 60 μL. The assay plate containing the reaction mixtures was sealed and incubated at 37° C. for 30 minutes. At the end of this incubation period, 400 μL of ice-cold Stop Buffer (the EDTA in the Stop Buffer chelates all of the available calcium) was added to each well to stop the reaction. 100 μL of equilibrated resin pH 5.5 was added to each of the assay wells. The reaction samples were vortexed and transferred to spin cups, after-which they were centrifuged at 13,000 rpm for 30 sec. The spin cups were removed from the holder and […] (containing the unbound L-citrulline) were added to the appropriate wells of a 96-well liquid scintillation plate. 175 μL of scintillation fluid were also added to each well. The plate was sealed, and radioactivity was quantitated using a Microbeta liquid scintillation counter.
Data were analyzed using a Sigmoidal dose-response (variable slope) curve to determine the IC50 value of the test compound. Y=Bottom+(Top−Bottom)/(1+10^((Log IC50−X)*Hill Slope))

The target in assay [2] is Nitric oxide synthase (neuronal, human recombinant) nNOS (Homo sapiens (Human), UniProt P29475). Description: Human nNOS enzyme assay ([3H]-L-arginine to L-citrulline conversion). It counts as biochemical. How it is done:
nNOS (Human), eNOS (Human) and iNOS (Human) Enzyme Assay
Primary stock solutions of test compounds at a concentration of 6 mM were prepared from the 2 to 5 mg powder. The primary stock solutions of each test compound were prepared freshly in distilled water on the day of study to obtain a final concentration of 6 mM. For determination of IC50 values, 12 test compound concentrations were prepared as 3-fold serial dilutions. Concentration range of test compound utilized for nNOS were 0.001 to 300 μM and for eNOS were 0.003 to 1000 μM. The vehicle of the test compound or inhibitor was used as blank control. For non-specific activity, 100 μM L-NMMA was used. Runs using the IC50 concentration of L-NAME were done in parallel as controls.
All incubations are performed in duplicate
The reaction mixture was prepared on ice by adding the following components with a micropipette to a polypropylene microcentrifuge tube: • 10 μL of test compound, inhibitor or control (vehicle or L-NMMA) solution; • 25 μL of Reaction Buffer {25 mM Tris-HCl, 0.6 μM BH4, 0.2 μM FMN, 0.2 μM FAD}; • 5 μL of 10 mM NADPH solution {1 mM} (freshly prepared in 10 mM Tris-HCl (pH 7.4); • 5 μL of 6 mM CaCl2 {600 W}; • 5 μL of 1 mM Calmodulin {100 W}; and • 5 μL of 0.02 μg/μL nNOS or 0.12 μg/μL eNOS.
The above reaction mixture was pre-incubated at room temperature for 15 mins.
The reaction was started by the addition of the substrate (in 5 μL containing 1 μCi of [^3H]-L-Arginine+2.5 μM of unlabeled L-Arginine) to the reaction mixture. Total reaction volume is 60 μL.
The reaction was mixed using a vortex mixer and incubate the above reaction mixture at 37° C. in an incubator for 30 minutes.
To stop the reaction, 400 μL of ice-cold Stop Buffer was added at the end of the incubation period.
The reaction was then mixed using a vortex mixer, and the reaction samples were transferred to spin cups, which were centrifuged using a microcentrifuge, at 13,000 rpm for 30 sec. at room temperature.
The spin cups were removed from the holder, 450 μL of eluate (containing the unbound L-citrulline) were transferred to scintillation vials. 3 mL of scintillation fluid were added and the radioactivity was quantified in a liquid scintillation counter.
Data was analyzed using a Sigmoidal dose-response (variable slope) curve to determine the IC50 value of the test compound. Y=Bottom+(Top−Bottom)/(1+10^((Log IC50−X)*Hill Slope))

As usually defined, the IC50 is the point on the concentration scale where inhibition reaches its midpoint.

On to `CNCCN1CCSc2cc(NC(=N)c3cccs3)ccc21` [Compound 8, N-(4-(2-(methylamino)ethyl)-3,4-dihydro-2H-benzo[b][1,4]thiazin-7-yl)thiophene-2-carboximidamide], for which the IC50 in assay [1] turned out to be 70.6 µM; in assay [2] (recombinant human nNOS), 0.06 µM. In assay [2] (ratio of human eNOS IC50 to human nNOS IC50), the “Selectivity eNOS/nNOS” value was found to be 531.
